The numbers were not newly measured in publication PMC9325861, “Mouse precision-cut liver slices as an ex vivo model to study drug-induced cholestasis” (Archives of Toxicology, 2022), which cites them from elsewhere.

SMILES strings stand for the structures.

In data set [1] the test system is primary human hepatocytes. The arrangement: method as in Ogimura et al. [2017]. The following applies: in the presence of a BA mixture, ref Ogimura et al. [2017], read-out: Concentration with 50% toxicity; cited from earlier work.
A further data set relates to MRP2. On the set-up: method as in Pedersen et al. [2008]; Morgan et al. [2013]. The note with it: ref Pedersen et al. [2008]; Morgan et al. [2013]; cited from earlier work.

Consider `COc1ccc(Cl)cc1C(=O)NCCc1ccc(S(=O)(=O)NC(=O)NC2CCCCC2)cc1` [GB, Glibenclamide], for which, in data set [1], the IC50 was 103 µM. In addition, the “Effect on MRP2 activity on a protein level” value in the data set with MRP2 is given as “stimulate MRP2 activity”.
